According to ChEMBL document CHEMBL1201862, “PubChem BioAssay data set” (2004):
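96-well plates; 48 h exposure; 5 concentrations. Endpoints by linear interpolation between flanking doses. Not reached: highest tested concentration assigned. GI50: concentration for 50% inhibition of growth.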 Active and inactive are the calls of the source. Rule as the data show it: active = GI50 up to about 1.1 µM and inactive = higher.

Key:
Assay in all cases: inhibition of tumour cell growth, NCI panel, 48 h
[1] = tested on: SNB-75
[2] = tested on: ACHN
[3] = tested on: MDA-MB-231
[4] = tested on: HOP-62
[5] = tested on: SF-295
[6] = tested on: SF-539
[7] = tested on: EKVX
[8] = tested on: SK-OV-3
[9] = tested on: U-251
[10] = tested on: UACC-62
[11] = tested on: K562
[12] = tested on: NCI-H522
[13] = tested on: Hs-578T
[14] = tested on: IGROV-1
[15] = tested on: PC-3
[16] = tested on: NCI/ADR-RES
[17] = tested on: MDA-MB-435
[18] = tested on: OVCAR-4
[19] = tested on: COLO 205
[20] = tested on: HCT-116

| Structure (SMILES) | GI50 [1] | GI50 [2] | GI50 [3] | GI50 [4] | GI50 [5] | GI50 [6] | GI50 [7] | GI50 [8] | GI50 [9] | GI50 [10] | GI50 [11] | GI50 [12] | GI50 [13] | GI50 [14] | GI50 [15] | GI50 [16] | GI50 [17] | GI50 [18] | GI50 [19] | GI50 [20] |
| --- | --- | --- | --- | --- | --- | --- | --- | --- | --- | --- | --- | --- | --- | --- | --- | --- | --- | --- | --- | --- |
| COc1ccc(/C(C)=C2\CCCN(Cc3ccccc3)C2)cc1 | 24.2 µM (inactive) | 28.1 µM (inactive) | 21.4 µM (inactive) | 18.3 µM (inactive) | 16.5 µM (inactive) | 15.8 µM (inactive) | 37.1 µM (inactive) | 29.9 µM (inactive) | 19.6 µM (inactive) | 19.8 µM (inactive) | 24 µM (inactive) | 13.4 µM (inactive) | 13.5 µM (inactive) | 28.2 µM (inactive) | 23 µM (inactive) | 22.6 µM (inactive) | 20.7 µM (inactive) | 27.2 µM (inactive) | 17.5 µM (inactive) |  |
| O=C1CC(c2ccccc2)[S+]([O-])c2ccccc2N1 (configuration not stated) | > 100 µM (inactive) | > 100 µM (inactive) | > 100 µM (inactive) | > 100 µM (inactive) | > 10 µM (inactive) |  | > 100 µM (inactive) | > 100 µM (inactive) | > 100 µM (inactive) | > 100 µM (inactive) | > 100 µM (inactive) | > 100 µM (inactive) | > 100 µM (inactive) | > 100 µM (inactive) | > 100 µM (inactive) | > 100 µM (inactive) | > 100 µM (inactive) | > 100 µM (inactive) | > 100 µM (inactive) | > 100 µM (inactive) |
| CCOc1ccc2c(c1)C(/C(C(Cl)=C(Cl)Cl)=[N+](/[O-])OC(=O)c1ccccc1)=N2 | 56.8 µM (inactive) | 73.1 µM (inactive) | 45.7 µM (inactive) | 65.8 µM (inactive) | 49.7 µM (inactive) | 79.3 µM (inactive) | 15.4 µM (inactive) | > 100 µM (inactive) | 46.7 µM (inactive) | 77.6 µM (inactive) | 38.7 µM (inactive) | 35.2 µM (inactive) | 52.8 µM (inactive) |  | 30.9 µM (inactive) | 57.3 µM (inactive) | 29.6 µM (inactive) | 23 µM (inactive) | 40.1 µM (inactive) | 46 µM (inactive) |
| COc1cc(/C=N/n2c(-c3ccccc3)nn(C(C)=O)c2=O)cc(OC)c1OC | 3.01 µM (inactive) | 6 µM (inactive) | 4.61 µM (inactive) | 12 µM (inactive) | 1.02 µM (active) | 1.66 µM (inactive) | 8.81 µM (inactive) | 4.2 µM (inactive) | 3 µM (inactive) | 1.92 µM (inactive) | 0.557 µM (active) | 0.818 µM (active) | 3.13 µM (inactive) | 2.11 µM (inactive) | 2.07 µM (inactive) | 1.25 µM (inactive) | 0.19 µM (active) | 9.91 µM (inactive) | 1.58 µM (inactive) | 0.927 µM (active) |
| CC(=O)Nc1ccc2cc3c(nc2n1)c1cccnc1n3S(=O)(=O)c1ccccc1 | 59.6 µM (inactive) | > 100 µM (inactive) | > 100 µM (inactive) | > 100 µM (inactive) | > 100 µM (inactive) |  | > 100 µM (inactive) | > 100 µM (inactive) | > 100 µM (inactive) | > 100 µM (inactive) | > 100 µM (inactive) | > 100 µM (inactive) | > 100 µM (inactive) | > 100 µM (inactive) | > 100 µM (inactive) | > 100 µM (inactive) | > 100 µM (inactive) | > 100 µM (inactive) | > 100 µM (inactive) | 1.36 µM (inactive) |
| CCOC(=O)C(Cc1ccc2c(c1)CCC2)Cc1ccc2c(c1)CCC2 | > 100 µM (inactive) | > 100 µM (inactive) | > 100 µM (inactive) | > 100 µM (inactive) | 89.9 µM (inactive) | > 100 µM (inactive) | 91 µM (inactive) | > 100 µM (inactive) | 51.4 µM (inactive) |  | 26.5 µM (inactive) | 44.9 µM (inactive) | > 100 µM (inactive) | > 100 µM (inactive) | 38.9 µM (inactive) | 73.1 µM (inactive) | 42 µM (inactive) | > 100 µM (inactive) |  | 33.3 µM (inactive) |
| COc1ccc(NC(=O)CC(=O)N2N=C(N3CCCCC3)CC2c2ccccc2)cc1 (configuration not stated) | > 100 µM (inactive) | > 100 µM (inactive) | > 100 µM (inactive) | > 100 µM (inactive) | > 100 µM (inactive) | > 100 µM (inactive) | > 100 µM (inactive) |  | > 100 µM (inactive) | > 100 µM (inactive) |  | > 100 µM (inactive) | > 100 µM (inactive) | > 100 µM (inactive) | > 100 µM (inactive) | > 100 µM (inactive) | > 100 µM (inactive) | > 100 µM (inactive) | > 100 µM (inactive) | > 100 µM (inactive) |
